Test results published in PubChem BioAssay (NCI).
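1) Cells in 96-well plates. 2) Compound, 48 h, 5 concentrations. 3) Linear interpolation between surrounding doses. 4) Unreached endpoint = highest concentration. TGI: total growth inhibition.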

How the values were obtained:
Test in all cases: NCI anticancer screen, dose series, 48 h
786-0 renal = tested on: 786-0 renal
A498 renal = tested on: A498 renal
A549 NSCLC = tested on: A549 NSCLC
ACHN renal = tested on: ACHN renal
BT-549 breast = tested on: BT-549 breast
CAKI-1 renal = tested on: CAKI-1 renal
CCRF-CEM leukemia = tested on: CCRF-CEM leukemia
COLO 205 colon = tested on: COLO 205 colon
DU-145 prostate = tested on: DU-145 prostate
EKVX NSCLC = tested on: EKVX NSCLC
HCT-116 colon = tested on: HCT-116 colon
HCT-15 colon = tested on: HCT-15 colon
HL-60(TB) leukemia = tested on: HL-60(TB) leukemia
HOP-62 NSCLC = tested on: HOP-62 NSCLC
HOP-92 NSCLC = tested on: HOP-92 NSCLC
HS 578T breast = tested on: HS 578T breast
HT29 colon = tested on: HT29 colon
IGROV1 ovarian = tested on: IGROV1 ovarian
K-562 leukemia = tested on: K-562 leukemia
KM12 colon = tested on: KM12 colon
M14 melanoma = tested on: M14 melanoma
MALME-3M melanoma = tested on: MALME-3M melanoma
MCF7 breast = tested on: MCF7 breast
MDA-MB-231 breast = tested on: MDA-MB-231 breast
MDA-MB-435 = tested on: MDA-MB-435
MDA-N = tested on: MDA-N
MOLT-4 leukemia = tested on: MOLT-4 leukemia
NCI-H226 lung = tested on: NCI-H226 lung
NCI-H23 lung = tested on: NCI-H23 lung
NCI-H460 lung = tested on: NCI-H460 lung
NCI-H522 lung = tested on: NCI-H522 lung
NCI/ADR-RES ovarian = tested on: NCI/ADR-RES ovarian
OVCAR-3 ovarian = tested on: OVCAR-3 ovarian
OVCAR-4 ovarian = tested on: OVCAR-4 ovarian
OVCAR-5 ovarian = tested on: OVCAR-5 ovarian
OVCAR-8 ovarian = tested on: OVCAR-8 ovarian
PC-3 prostate = tested on: PC-3 prostate
RPMI-8226 leukemia = tested on: RPMI-8226 leukemia
RXF 393 renal = tested on: RXF 393 renal
SF-268 CNS = tested on: SF-268 CNS
SF-295 CNS = tested on: SF-295 CNS
SF-539 CNS = tested on: SF-539 CNS
SK-MEL-2 melanoma = tested on: SK-MEL-2 melanoma
SK-MEL-28 melanoma = tested on: SK-MEL-28 melanoma
SK-MEL-5 melanoma = tested on: SK-MEL-5 melanoma
SK-OV-3 ovarian = tested on: SK-OV-3 ovarian
SN12C renal = tested on: SN12C renal
SNB-19 CNS = tested on: SNB-19 CNS
SNB-75 CNS = tested on: SNB-75 CNS
SR leukemia = tested on: SR leukemia
SW-620 colon = tested on: SW-620 colon
T-47D breast = tested on: T-47D breast
U251 CNS = tested on: U251 CNS
UACC-257 melanoma = tested on: UACC-257 melanoma
UACC-62 melanoma = tested on: UACC-62 melanoma
UO-31 renal = tested on: UO-31 renal
HCC-2998 colon = tested on: HCC-2998 colon
LOX IMVI melanoma = tested on: LOX IMVI melanoma
TK-10 renal = tested on: TK-10 renal

Cc1[nH]c(-c2ccccc2)c(O)c1C(=O)OC12CC3CC(CC(C3)C1)C2
TGI (786-0 renal): 27 µM | TGI (A498 renal): 35 µM | TGI (A549 NSCLC): 25.7 µM | TGI (ACHN renal): 29.7 µM | TGI (BT-549 breast): 31.8 µM | TGI (CAKI-1 renal): 35.4 µM | TGI (CCRF-CEM leukemia): > 100 µM | TGI (COLO 205 colon): 27 µM | TGI (DU-145 prostate): 29.3 µM | TGI (EKVX NSCLC): 27 µM | TGI (HCT-116 colon): 30.4 µM | TGI (HCT-15 colon): 27.4 µM | TGI (HL-60(TB) leukemia): > 100 µM | TGI (HOP-62 NSCLC): 28.1 µM | TGI (HOP-92 NSCLC): 34.8 µM | TGI (HS 578T breast): 25.9 µM | TGI (HT29 colon): 17.2 µM | TGI (IGROV1 ovarian): 27.4 µM | TGI (K-562 leukemia): > 100 µM | TGI (KM12 colon): 19.3 µM | TGI (M14 melanoma): 24.9 µM | TGI (MALME-3M melanoma): 28 µM | TGI (MCF7 breast): 28 µM | TGI (MDA-MB-231 breast): 33.1 µM | TGI (MDA-MB-435): 28.6 µM | TGI (MDA-N): 31.2 µM | TGI (MOLT-4 leukemia): 32.3 µM | TGI (NCI-H226 lung): 27.1 µM | TGI (NCI-H23 lung): 31.6 µM | TGI (NCI-H460 lung): 21.3 µM | TGI (NCI-H522 lung): 22.9 µM | TGI (NCI/ADR-RES ovarian): 27.3 µM | TGI (OVCAR-3 ovarian): 27.8 µM | TGI (OVCAR-4 ovarian): 34.4 µM | TGI (OVCAR-5 ovarian): 26.8 µM | TGI (OVCAR-8 ovarian): 25.8 µM | TGI (PC-3 prostate): 28.9 µM | TGI (RPMI-8226 leukemia): > 100 µM | TGI (RXF 393 renal): 20.1 µM | TGI (SF-268 CNS): 27.2 µM | TGI (SF-295 CNS): 14.1 µM | TGI (SF-539 CNS): 23.7 µM | TGI (SK-MEL-2 melanoma): 31.3 µM | TGI (SK-MEL-28 melanoma): 27.8 µM | TGI (SK-MEL-5 melanoma): 28 µM | TGI (SK-OV-3 ovarian): 28.1 µM | TGI (SN12C renal): 30.1 µM | TGI (SNB-19 CNS): 28.3 µM | TGI (SNB-75 CNS): 23.1 µM | TGI (SR leukemia): 44 µM | TGI (SW-620 colon): 29.7 µM | TGI (T-47D breast): 29.5 µM | TGI (U251 CNS): 28.2 µM | TGI (UACC-257 melanoma): 31.2 µM | TGI (UACC-62 melanoma): 32.8 µM | TGI (UO-31 renal): 32.6 µM

O=C(O)CCn1cnc2c(=S)nc[nH]c21
TGI (786-0 renal): > 100 µM | TGI (A498 renal): > 100 µM | TGI (A549 NSCLC): > 100 µM | TGI (ACHN renal): > 100 µM | TGI (BT-549 breast): > 100 µM | TGI (CAKI-1 renal): > 100 µM | TGI (CCRF-CEM leukemia): > 100 µM | TGI (COLO 205 colon): > 100 µM | TGI (DU-145 prostate): > 100 µM | TGI (EKVX NSCLC): > 100 µM | TGI (HCC-2998 colon): > 100 µM | TGI (HCT-116 colon): > 100 µM | TGI (HCT-15 colon): > 100 µM | TGI (HL-60(TB) leukemia): > 100 µM | TGI (HOP-62 NSCLC): > 100 µM | TGI (HS 578T breast): > 100 µM | TGI (HT29 colon): > 100 µM | TGI (IGROV1 ovarian): > 100 µM | TGI (K-562 leukemia): > 100 µM | TGI (KM12 colon): > 100 µM | TGI (LOX IMVI melanoma): > 100 µM | TGI (M14 melanoma): > 100 µM | TGI (MALME-3M melanoma): > 100 µM | TGI (MCF7 breast): > 100 µM | TGI (MDA-MB-231 breast): > 100 µM | TGI (MDA-MB-435): > 100 µM | TGI (MDA-N): > 100 µM | TGI (MOLT-4 leukemia): > 100 µM | TGI (NCI-H226 lung): > 100 µM | TGI (NCI-H23 lung): > 100 µM | TGI (NCI-H460 lung): > 100 µM | TGI (NCI-H522 lung): > 100 µM | TGI (NCI/ADR-RES ovarian): > 100 µM | TGI (OVCAR-3 ovarian): > 100 µM | TGI (OVCAR-4 ovarian): > 100 µM | TGI (OVCAR-5 ovarian): > 100 µM | TGI (OVCAR-8 ovarian): > 100 µM | TGI (PC-3 prostate): > 100 µM | TGI (RPMI-8226 leukemia): > 100 µM | TGI (RXF 393 renal): > 100 µM | TGI (SF-268 CNS): > 100 µM | TGI (SF-295 CNS): > 100 µM | TGI (SF-539 CNS): > 100 µM | TGI (SK-MEL-2 melanoma): > 100 µM | TGI (SK-MEL-28 melanoma): > 100 µM | TGI (SK-MEL-5 melanoma): > 100 µM | TGI (SK-OV-3 ovarian): > 100 µM | TGI (SN12C renal): > 100 µM | TGI (SNB-19 CNS): > 100 µM | TGI (SNB-75 CNS): > 100 µM | TGI (SR leukemia): > 100 µM | TGI (SW-620 colon): > 100 µM | TGI (T-47D breast): > 100 µM | TGI (TK-10 renal): > 100 µM | TGI (U251 CNS): > 100 µM | TGI (UACC-257 melanoma): > 100 µM | TGI (UACC-62 melanoma): > 100 µM | TGI (UO-31 renal): > 100 µM
